Article PMC3004370, “PI3Kα Inhibitors That Inhibit Metastasis” (Oncotarget, 2010)

How the values were obtained:
[1] = tested on: Intraspleenic-injected HCT116 liver and lung metastases; assay: Intraspleenic tumor model (metastasis); type: in vivo, mice; conditions: 150 mg/kg IP daily, three weeks
Method: Intraspleenic-injected HCT116 liver and lung metastases in NOD.Cg-Prkdcscid Il2rgtm1Wjl/SzJ mice (Jackson Laboratory, Bar Harbor, ME, USA) were generated as described in Erikson et. al.. J-series compounds were solubilized in 1:1 DMSO/Cremophor EL (Sigma-Aldrich) and diluted 2.3-fold in water to a final concentration of 7.5 mg/ml. 400 μl of this formulation (150 mg/kg) was injected intraperitoneally (IP) once a day for three weeks, beginning the third day post-surgery. Mice were sacrificed after the treatment and the liver, lungs, and spleen sampled. DNA was extracted from organs with the DNeasy Blood & Tissue Kit (Qiagen). The qPCR assay used for quantification of human DNA in mouse organs has been described. All mouse protocols were designed in accordance with the NIH Guide for the Care and Use of Laboratory Animals and approved by the Institutional Animal Care and Use Committee.

p110β = biological target: T1, p110β (Homo sapiens, UniProt P42338); assay: Biochemical PI3K inhibition assay, p110β
T1 construct: His-tag; made in house; host or cells: Sf9 insect cells (baculovirus)
Excerpt: (§1) cDNA clones of PIK3CA, PIK3CB and PIK3CG were obtained from Origene (Rockville, MD, USA). PIK3CD was generously provided by Novartis Pharmaceuticals. The cDNA clones were sub-cloned into pFastBac His-Tag (Invitrogen, Carlsbad, CA, USA) and baculovirus clones were generated by the Bac-to-Bac expression system (Invitrogen). p110α, p110β and p110δ were co-expressed in Sf9 insect cells (Invitrogen) with a nSH2-iSH2 fragment of the regulatory subunit p85 comprising AA residues 322 to 600 [4]. p110γ was expressed without a regulatory subunit. Sf9 cells were lysed in a buffer containing 50 mM sodium phosphate, pH 8.0, 400 mM NaCl, 5% glycerol, 1% Triton X-100, 10 mM 2-mercaptoethanol, 1 mM orthovanadate, 10 mM imidazole, and sonicated on ice for 1 minute. Proteins were purified by adding Ni-NTA Superflow beads (Qiagen, Valencia, CA, USA) to the lysate and subsequent rolling for 30 min at 4°C. Beads were washed twice with 50 mM phosphate buffer, pH 8.0, 0.5 M NaCl, 50 mM Imidazole, 2 mM DTT and eluted in the same buffer but with 200 mM imidazole. Purified PI3K's were mixed 1:1 with glycerol and stored at -20°C.
(§2) J-series inhibitors were dissolved, serial diluted in DMSO and deposited into 96 well plates at a final DMSO concentration of 1%. We used a novel assay to determine their potency and selectivity. In brief, micelles of 2.5 μg L-a-Phosphatidylinositol and 2.5 μg 1,2-Diacyl-sn-glycero-3-phospho-L-serine were formed by sonication, mixed with the individual PI3K isoforms and added to the drug dilutions in a reaction buffer containing 10 mM HEPES, 25 mM NaCl, 0.125 μg/μl BSA, and 2 mM BME (final concentrations). Reactions were timed after the addition of 10 μM ATP with 40 μCi/ml γ-32P-ATP (PerkinElmer, Waltham, MA, USA) and 2 mM MgCl2 (all final concentrations). The reactions were terminated after two hours by the addition of 2 N HCl and the lipids extracted with 1:1 MetOH/Chloroform. Radio-labeled phosphatidyl-inositol-3-phosphate in the extracted organic fraction was quantified after the addition of Microscint O (PerkinElmer) using a TopCount 96 well plate scintillation counter (PerkinElmer). IC50 concentrations and inhibition curves were calculated using Prism 5 (GraphPad Software, La Jolla, CA).

p110δ = biological target: T2, p110δ (Homo sapiens, UniProt O00329); assay: Biochemical PI3K inhibition assay, p110δ; conditions: 10 μM ATP, two hours
T2 construct: His-tag; made in house; host or cells: Sf9 insect cells (baculovirus)
Excerpt: as §1, §2

p110γ = biological target: T3, p110γ (Homo sapiens, UniProt P48736); assay: Biochemical PI3K inhibition assay, p110γ
T3 construct: His-tag; made in house; host or cells: Sf9 insect cells (baculovirus)
Excerpt: as §1, §2

T1 sequence (P42338 whole entry): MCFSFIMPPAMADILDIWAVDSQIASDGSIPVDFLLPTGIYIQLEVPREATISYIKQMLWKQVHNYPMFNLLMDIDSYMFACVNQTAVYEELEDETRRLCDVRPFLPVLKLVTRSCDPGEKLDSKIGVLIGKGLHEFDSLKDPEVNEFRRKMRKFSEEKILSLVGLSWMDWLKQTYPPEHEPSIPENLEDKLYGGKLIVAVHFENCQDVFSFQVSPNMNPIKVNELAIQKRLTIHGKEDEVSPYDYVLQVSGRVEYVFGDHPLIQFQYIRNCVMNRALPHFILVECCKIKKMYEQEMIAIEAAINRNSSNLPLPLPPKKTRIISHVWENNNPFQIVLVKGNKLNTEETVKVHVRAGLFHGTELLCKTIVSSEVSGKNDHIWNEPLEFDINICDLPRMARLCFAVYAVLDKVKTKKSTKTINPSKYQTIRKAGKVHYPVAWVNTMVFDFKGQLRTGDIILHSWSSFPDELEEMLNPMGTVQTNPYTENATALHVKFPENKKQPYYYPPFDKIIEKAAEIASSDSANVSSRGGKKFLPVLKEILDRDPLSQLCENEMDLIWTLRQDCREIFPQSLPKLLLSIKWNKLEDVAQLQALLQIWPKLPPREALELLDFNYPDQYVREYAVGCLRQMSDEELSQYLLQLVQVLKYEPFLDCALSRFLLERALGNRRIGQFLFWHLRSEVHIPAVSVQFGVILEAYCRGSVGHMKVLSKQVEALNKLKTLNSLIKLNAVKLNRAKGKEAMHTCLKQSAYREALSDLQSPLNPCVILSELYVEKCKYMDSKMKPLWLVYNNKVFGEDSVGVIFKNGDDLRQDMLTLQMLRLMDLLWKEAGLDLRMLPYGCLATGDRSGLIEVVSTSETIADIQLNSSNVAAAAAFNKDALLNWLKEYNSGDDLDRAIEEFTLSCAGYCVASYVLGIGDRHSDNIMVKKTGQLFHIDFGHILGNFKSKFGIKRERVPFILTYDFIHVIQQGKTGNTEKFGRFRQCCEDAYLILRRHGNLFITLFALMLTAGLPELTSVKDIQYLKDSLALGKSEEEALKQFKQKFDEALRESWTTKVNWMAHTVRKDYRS
T1 sequence (P27986 322-600 partner limits assumed): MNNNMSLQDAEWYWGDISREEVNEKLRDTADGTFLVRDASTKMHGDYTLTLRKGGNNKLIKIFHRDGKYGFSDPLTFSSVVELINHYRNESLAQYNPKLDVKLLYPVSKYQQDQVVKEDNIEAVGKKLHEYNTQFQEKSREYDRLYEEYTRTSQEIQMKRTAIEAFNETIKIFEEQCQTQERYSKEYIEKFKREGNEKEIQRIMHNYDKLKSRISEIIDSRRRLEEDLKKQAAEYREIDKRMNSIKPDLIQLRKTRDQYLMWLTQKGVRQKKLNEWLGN
T3 sequence (P48736 whole entry): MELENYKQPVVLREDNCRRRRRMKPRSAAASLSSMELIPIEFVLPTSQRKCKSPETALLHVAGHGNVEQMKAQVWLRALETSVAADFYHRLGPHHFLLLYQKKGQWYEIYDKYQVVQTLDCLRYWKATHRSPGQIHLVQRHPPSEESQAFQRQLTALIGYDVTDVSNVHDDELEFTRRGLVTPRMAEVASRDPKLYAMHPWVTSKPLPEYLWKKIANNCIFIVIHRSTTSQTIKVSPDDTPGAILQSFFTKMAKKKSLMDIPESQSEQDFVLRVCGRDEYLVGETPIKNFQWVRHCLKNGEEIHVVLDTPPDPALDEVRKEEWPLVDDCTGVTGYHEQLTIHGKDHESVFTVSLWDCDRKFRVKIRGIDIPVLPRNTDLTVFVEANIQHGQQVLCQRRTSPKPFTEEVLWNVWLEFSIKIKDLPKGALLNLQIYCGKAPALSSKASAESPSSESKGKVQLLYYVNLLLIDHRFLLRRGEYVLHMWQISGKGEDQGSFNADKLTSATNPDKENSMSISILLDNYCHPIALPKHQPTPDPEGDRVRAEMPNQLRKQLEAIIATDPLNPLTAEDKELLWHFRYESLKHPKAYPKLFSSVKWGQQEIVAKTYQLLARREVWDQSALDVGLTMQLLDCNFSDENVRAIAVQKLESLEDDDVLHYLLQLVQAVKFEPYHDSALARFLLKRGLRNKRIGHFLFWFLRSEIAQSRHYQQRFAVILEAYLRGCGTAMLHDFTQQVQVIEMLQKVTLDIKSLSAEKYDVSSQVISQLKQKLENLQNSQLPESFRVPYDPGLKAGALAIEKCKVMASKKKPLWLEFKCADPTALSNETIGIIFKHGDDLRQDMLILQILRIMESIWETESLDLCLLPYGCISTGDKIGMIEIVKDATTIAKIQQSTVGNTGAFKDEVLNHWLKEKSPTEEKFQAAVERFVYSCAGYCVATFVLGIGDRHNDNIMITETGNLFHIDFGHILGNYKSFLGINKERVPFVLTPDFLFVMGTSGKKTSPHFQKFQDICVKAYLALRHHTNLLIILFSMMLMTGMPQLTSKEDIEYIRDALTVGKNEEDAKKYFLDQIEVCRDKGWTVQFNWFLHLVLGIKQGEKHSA
T2 sequence (O00329 whole entry): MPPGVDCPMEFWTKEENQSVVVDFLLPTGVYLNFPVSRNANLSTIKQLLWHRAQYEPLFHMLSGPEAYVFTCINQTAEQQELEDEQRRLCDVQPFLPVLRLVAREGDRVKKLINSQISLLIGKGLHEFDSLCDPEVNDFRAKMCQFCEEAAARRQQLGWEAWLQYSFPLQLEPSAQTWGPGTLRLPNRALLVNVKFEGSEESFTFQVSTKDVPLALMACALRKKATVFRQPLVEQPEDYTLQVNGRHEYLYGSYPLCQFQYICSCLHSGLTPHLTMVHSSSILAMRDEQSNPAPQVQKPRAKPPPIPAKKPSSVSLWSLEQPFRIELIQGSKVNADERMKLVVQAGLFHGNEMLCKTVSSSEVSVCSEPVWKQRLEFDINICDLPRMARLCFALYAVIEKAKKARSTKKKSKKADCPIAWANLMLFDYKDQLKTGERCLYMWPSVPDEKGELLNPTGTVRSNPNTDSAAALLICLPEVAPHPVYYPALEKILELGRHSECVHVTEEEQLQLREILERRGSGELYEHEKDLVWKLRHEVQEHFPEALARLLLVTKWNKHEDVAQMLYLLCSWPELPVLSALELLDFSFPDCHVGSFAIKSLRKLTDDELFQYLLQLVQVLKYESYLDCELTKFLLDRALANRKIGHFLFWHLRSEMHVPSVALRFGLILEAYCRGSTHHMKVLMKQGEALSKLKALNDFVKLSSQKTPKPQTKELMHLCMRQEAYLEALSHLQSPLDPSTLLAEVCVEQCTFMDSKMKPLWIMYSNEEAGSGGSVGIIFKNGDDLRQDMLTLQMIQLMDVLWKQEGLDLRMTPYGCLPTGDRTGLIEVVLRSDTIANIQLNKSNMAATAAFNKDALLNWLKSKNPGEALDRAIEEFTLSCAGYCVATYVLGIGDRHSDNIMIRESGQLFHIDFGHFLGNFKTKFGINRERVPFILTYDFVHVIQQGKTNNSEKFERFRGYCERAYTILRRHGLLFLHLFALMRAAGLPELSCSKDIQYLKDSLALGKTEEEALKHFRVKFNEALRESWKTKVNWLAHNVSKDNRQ
T2 sequence (P27986 322-600 partner limits assumed): as the sequence (P27986 322-600 partner limits assumed) above

CCN(/N=C/c1cnc2ccc(Br)cn12)S(=O)(=O)c1cc([N+](=O)[O-])c(NC(=O)C(F)(F)F)cc1C [J124]
metastatic lesions in the lungs [1]: no lesions | metastatic foci in the liver (histopathology) ([1]; compared to vehicle): few, if any, metastatic foci | reduction in primary tumor burden in the spleen (real-time PCR) ([1]; compared to vehicle): ~ 50% | reduction of metastatic liver burden (real-time PCR) ([1]; compared to vehicle): 13 fold | IC50 (p110β; 10 μM ATP, two hours): 270 nM | selectivity against PI3Kβ (p110β; relative to PI3Kα): > 20 fold | IC50 (p110δ): 160 nM | IC50 (p110γ; 10 μM ATP, two hours, no regulatory subunit): 380 nM | selectivity against PI3Kγ (p110γ; relative to PI3Kα): > 30 fold
